Experimental data taken from publication PMC8765781, “A platform of assays for the discovery of anti-Zika small-molecules with activity in a 3D-bioprinted outer-blood-retina model” (PLoS ONE, 2022).
Read-outs that look alike come from different tables or passages of the source.

Legend:
[1] = test system: wild-type ZIKV (Ugandan MR766 strain) in Vero cells; assay: ZIKV cytopathic effect (CPE) inhibition qHTS assay, CellTiter-Glo readout; type: cell-based, Zika virus; details: for IC50: read-out: ZIKV-infection (CPE, ZIKV Antiviral Assays), IC50
[2] = test system: Vero cells
[3] = test system: ZIKV-RLuc (Cambodian strain FSS13025); assay: microbe, parasite or virus in culture; type: cell-based, Zika virus; details: for IC50: read-out: Rluc-ZIKV (ZIKV Antiviral Assays), IC50
[4] = in vitro; details: African green monkey
[5] = test system: ZIKV-mCherry (Cambodian strain FSS13025); assay: microbe, parasite or virus in culture; type: cell-based, Zika virus
[6] = test system: caspase-3 activity induced by ZIKV in Vero cells; assay: cells; type: cell-based; details: read-out: Caspase 3 (ZIKV Antiviral Assays), IC50
[7] = Zika virus, Vero, read-out: Log AC50 (M) (converted)
[8] = Zika virus, Vero, from Hill fit of the response curve, 50% of maximum activity response, 194 cherry-picked compounds, protocol name not given, read-out: AC50
[9] = Zika virus, Vero, potency in log units (Molar) from Hill fit of the response curve, 194 cherry-picked compounds, protocol name not given, read-out: Log AC50 (converted)
[10] = curve class v2 (Inglese et al. 2006)
[11] = difference between neutral response and maximum compound response

Row | Compound | AC50 [2] | Log AC50 (M) [2] | CC-v2 (curve class classification v2 of the dose response curve) [3] | Efficacy (difference between neutral response and maximum compound response) [3] | Max Resp (difference between neutral response and compound response for highest compound concentration) [3] | AC50 ([3]; Zika virus, Vero) | AC50 [3, 7] | also measured
1 | CC1=C(CO)C(=O)O[C@@H]([C@@H](C)[C@H]2CC[C@H]3[C@@H]4C[C@H]5O[C@]56[C@@H](O)C=CC(=O)[C@]6(C)[C@H]4CC[C@]23C)C1 [NCGC00180796-02] | 10.2 µM | -4.9908 M | -2.1 | -108.248 | -100.116 | 1.02e-05 M | 1.02e-05 M | Curve class [1]: -3; Efficacy [1]: -63.347; AC50 ([1]; Zika virus, Vero): 3.55e-05 M; AC50 ([1]; Zika virus, Vero, read-out: Log AC50 (converted)): 3.55e-05 M; Emax ([1]; Zika virus, Vero, read-out: Max response): -65.4%
2 | O=C1NC2CCCCN2C12CCN(CCCN1c3ccccc3CCc3ccc(Cl)cc31)CC2 (stereo not shown) [NCGC00183853-01] | 26.1 µM | -4.5827 M | -2.1 | -99.983 | -99.289 | 2.61e-05 M | 2.61e-05 M | AC50 [1, 8]: 6.51e-05 M; AC50 [1, 9]: 6.51e-05 M; CC-v2 (curve class classification of the dose response curve) [1, 10]: -3; Efficacy [1, 11]: -47.567
3 | C[C@H]1CC[C@@]2(OC1)O[C@H]1CC3[C@@H]4CC[C@@H]5C[C@@H](O[C@@H]6O[C@H](CO)[C@@H](O[C@@H]7O[C@@H](C)[C@H](O)[C@@H](O)[C@H]7O)[C@H](O)[C@H]6O[C@@H]6O[C@H](CO)[C@@H](O)[C@H](O)[C@H]6O)CC[C@]5(C)C4CC[C@]3(C)[C@H]1[C@@H]2C (stereo partly shown) [NCGC00347372-02, Asparanin B] |  |  |  |  |  |  |  | CC50 at 48 h [4]: > 50 µM; CC-v2 (curve class of the dose response curve) [5]: -1.2; Efficacy (difference between neutral response and maximum compound response) [5]: -51.182; Max Resp (difference between neutral response and response at highest compound concentration) [5]: -100.305; AC50 ([5]; Zika virus, Vero): 1.27e-06 M; AC50 [5, 7]: 1.27e-06 M; AC50 [1, 8]: 1.1e-05 M; AC50 [1, 9]: 1.1e-05 M; IC50 ([1]; Zika virus, Vero cells, wild-type ZIKV MOI 1, 48 hr, unit inferred): 11 µM; CC-v2 (curve class classification of the dose response curve) [1, 10]: -2.2; Efficacy [1, 11]: -63.699; IC50 ([3]; Zika virus, Vero, 48 h): 6.19 µM; IC50 ([6]; Zika virus, ZIKV-infected Vero cells, 48 hr, unit inferred): 6.98 µM
4 | CC1(C)CC[C@]2(C(=O)O)CC[C@]3(C)C(=CCC4[C@@]5(C)CCC(O[C@@H]6OC[C@H](O)[C@H](O)[C@H]6O[C@@H]6O[C@H](CO)[C@@H](O)[C@H](O)[C@H]6O)[C@@](C)(CO)C5CC[C@]43C)[C@@H]2C1 (stereo partly shown) [NCGC00347737-02] |  |  |  |  |  |  |  | CC50 at 48 h ([4]; Vero cells): > 50 µM; Efficacy [1]: -61.863; AC50 ([1]; Zika virus, Vero): 2.43e-07 M; IC50 ([1]; Zika virus, Vero, 48 h): 0.24 µM; AC50 [1, 7]: 2.43e-07 M; IC50 ([3]; Zika virus, Vero, 48 h): 12.3 µM; IC50 ([6]; Zika virus, Vero, 48 h): 0.02 µM
5 | C[C@@H]1O[C@@H](O[C@H]2[C@H](OC(=O)[C@]34CCC(C)(C)C[C@H]3C3=CCC5[C@@]6(C)C[C@H](O)[C@H](O[C@@H]7O[C@H](C(=O)O)[C@@H](O)[C@H](O)[C@H]7O)[C@@](C)(CO)C6[C@H](O)C[C@@]5(C)[C@]3(C)CC4)OC[C@H](O)[C@@H]2O)[C@H](O)[C@H](O)[C@H]1O[C@@H]1OC[C@@H](O)[C@H](O[C@@H]2OC[C@](O)(CO)[C@H]2O)[C@H]1O (stereo partly shown) [NCGC00380219-01] | 11.6 µM | -4.9345 M | -2.1 | -96.8 | -99.643 | 1.16e-05 M | 1.16e-05 M | 
6 | COC1C(O)C(OC2CCC3(C)C(CCC4C3CCC3(C)C(C5=CC(=O)OC5)CCC43O)C2)OC(C)C1OC1OC(COC2OC(CO)C(O)C(O)C2O)C(O)C(O)C1O (stereo not shown) [NCGC00380220-01] | 1.29 µM | -5.8908 M | -1.1 | -95.552 | -99.662 | 1.29e-06 M | 1.29e-06 M | 
7 | CC(=O)O[C@@H]1[C@@H](O)[C@H]2O[C@@H]3C=C(C)[C@@H](O)C[C@]3(CO)[C@]1(C)[C@]21CO1 [NCGC00380400-01, NT-2 toxin] |  |  |  |  |  |  |  | CC-v2 (curve class of the dose response curve) [5]: -1.2; Efficacy (difference between neutral response and maximum compound response) [5]: -59.911; Log AC50 (M) [5]: -7.0328 M; Max Resp (difference between neutral response and response at highest compound concentration) [5]: -100.305; AC50 ([5]; read-out: AC50): 9.27e-08 M; CC-v2 (curve class classification of the dose response curve) [1]: -1.2; Efficacy [1]: -41.676; Log AC50 (M) [1]: -5.594 M; Max Resp [1]: 6.747; AC50 ([1]; read-out: AC50): 2.55e-06 M; IC50 [1]: 2.55 µM; IC50 [3]: 0.64 µM; IC50 [6]: 2.29 µM
8 | CC1CCCC(SCC(O)C(=O)O)CC(=O)c2c(O)cc(O)cc2CC(=O)O1 (stereo not shown) [NCGC00380419-01] | 18.2 µM | -4.7408 M | -3 | -93.408 | -77.007 | 1.82e-05 M | 1.82e-05 M | 
9 | C/C(=C\CO)CC/C=C(\C)CCC(O)C(C)(O)CCCC(C)(O)CCCC(C)(O)CCCC(C)(O)CCCC(C)(O)CCCC(C)(O)CCCC(C)(C)O (stereo not shown) [NCGC00381040-01] | 1.44 µM | -5.8408 M | -1.1 | -92.604 | -99.402 | 1.44e-06 M | 1.44e-06 M | 
10 | COc1ccc2c(c1)CN(C(=O)CCN1CCC(Cc3ccccc3)CC1)CCS2 [NCGC00384450-01] | 36.9 µM | -4.4327 M | -3 | -97.233 | -83.243 | 3.69e-05 M | 3.69e-05 M | 
11 | C/C=C(/C)C(=O)O[C@H]1[C@@H]2[C@H](C)C(=O)O[C@@H]2C[C@@H](C)[C@@H]2C=CC(=O)[C@]21C [NCGC00385048-01] |  |  |  |  |  |  |  | CC50 at 48 h [4]: > 50 µM; Efficacy [1]: -20.801; IC50 ([3]; Zika virus, Vero, 48 h): 18.1 µM; IC50 ([6]; Zika virus, Vero, 48 h): 0.65 µM
12 | C=C(C)[C@H]1CCC(C)=C[C@@H]1c1c(O)cc(CCCCC)cc1O [NCGC00385066-01] | 36.9 µM | -4.4327 M | -3 | -124.845 | -99.067 | 3.69e-05 M | 3.69e-05 M | 
13 | Oc1cc(O)cc(CCCCC/C=C\CCCCCCCc2cc(O)cc(O)c2)c1 [NCGC00385180-01] |  | -4.4327 M | -3 | -110.94 | -89.374 | 3.69e-05 M | 3.69e-05 M | 
14 | COc1ccc(-c2oc3cc(O)c(OC)c(O)c3c(=O)c2OC)cc1O [NCGC00385612-01] | 1.17 µM | -5.9327 M | -1.2 | -71.455 | -72.562 | 1.17e-06 M | 1.17e-06 M | 
